# Data as given in article PMC11397024, “Strategic Fluorination to Achieve a Potent, Selective, Metabolically Stable, and Orally Bioavailable Inhibitor of CSNK2” (Molecules, 2024).
# How the values were obtained:
# [1] = molecular target: T1, CSNK2A2 (Homo sapiens, UniProt P19784); assay: NanoBRET assay CSNK2A2; type: cell-based; settings: HEK293 cells, singlicate, read-out: CSNK2A2 pIC50 (converted)
# T1 construct: expressed in transfected cells; host or cells: HEK293
# Procedure: Assays were run using a modified version of the previously published protocols. […] A transfection complex of DNA (10 μg/mL) was generated consisting of 9 μg/mL carrier DNA (Promega, Madison, WI, USA) and 1 μg/mL CSNK2A-NLuc fusion DNA in Opti-MEM without serum (Gibco). FuGENE HD (Promega) was added at 30 μL/mL to form a lipid–DNA complex. The solution was then mixed and incubated at room temperature for 20 min. The transfection complex was mixed with a 20× volume of HEK293 cells in DMEM/FBS to arrive at a final concentration of 200,000 cells/mL, and 100 μL/well was added to a 96-well plate that was incubated overnight at 37 °C and 5% CO2. The following day, the medium was removed via aspiration and replaced with 85 μL of Opti-MEM without phenol red. A total of 5 μL per well of 20× NanoBRET Tracer K10 (Promega) at 10 μM for CSNK2A1 or 5 μM for CSNK2A2 in Tracer Dilution Buffer (Promega N291B) was added to all wells, except the “no tracer” control wells. Test compounds (10 mM in DMSO) were diluted 100× in Opti-MEM media to prepare stock solutions and evaluated at 11 concentrations. A total of 10 μL per well of the 10-fold test compound stock solutions (final assay concentration of 0.1% DMSO) were added. […] The plates were read within 30 min on a GloMax Discover luminometer (Promega) equipped with a 450 nm BP filter (donor) and 600 nm LP filter (acceptor) using 0.3 s of integration time. […]
# [2] = molecular target: T2, CLK4 (Homo sapiens, UniProt Q9HAZ1); assay: NanoBRET dose-response CLK4; type: cell-based; settings: highest concentration tested 30 μM
# T2 construct: expressed in transfected cells; host or cells: HEK293
# [3] = Liver microsomal stability, mouse; type: in vitro ADME; settings: male, CD-1, pH 7.4, mouse liver microsomes, five time points over 1 h, read-out: MLM CLint
# Procedure: Compounds 1 ([…] DMSO stock solutions) were diluted to 2.5 mM with DMSO and again to 0.5 mM with MeCN to give a final solution containing a 0.5 mM compound in 1:4 DMSO/MeCN. Liver microsomes from male CD-1 mice were sourced from Xenotech (Kansas City, KS, USA). A reaction plate was prepared by adding 691.25 μL and prewarmed (37 °C) microsomal solution (0.63 mg/mL protein and 1.3 mM EDTA in potassium phosphate buffer made by mixing ~250 mL of 100 mM K2HPO4 with ~65mL of KH2PO4 until the buffer reaches a pH of 7.4) to an empty well of a 96-well plate and maintained at 37 °C. […] The stability of the compound was calculated as the percentage of the unchanged parent remaining at T = 30 min relative to the peak area at T = 0 min.
# To determine CLint, aliquots of 50 μL were taken from the reaction solution at 0, 15, 30, 45, and 60 min. […] Peak areas were determined from extracted ion chromatograms and the slope value, k, was determined by linear regression of the natural logarithm of the remaining percentage of the parent drug vs. incubation time curve. The intrinsic clearance (CLint in μL/min/mg) was calculated using the relationship CLint = kV/N where V is the incubation volume and N is the amount of protein per well.
# [4] = test system: mouse hepatitis virus (MHV); assay: MHV assay (MHV-nLuc in DBT cells); settings: Murine coronavirus, read-out: MHV pIC50 (converted)
# Procedure: DBT cells were cultured at 37 °C in Dulbecco’s modified Eagle medium (DMEM; Sigma-Aldrich, St. Louis, MO, USA) supplemented with 10% fetal bovine serum (FBS; Avantor, Randor, PA, USA) and penicillin and streptomycin (Sigma-Aldrich, St. Louis, MO, USA). DBT cells were plated in 96-well plates to be 80% confluent at the start of the assay. Test compounds or positive control EIDD-1931 were diluted to 15 μM in DMEM. Serial 4-fold dilutions were made in DMEM, providing a concentration range of 15–0.22 μM. Media were aspirated from the DBT cells, and 100 μL of the diluted test compounds was added to the cells for 1 h at 37 °C. After 1 h, MHV-nLuc5 was added at an MOI of 0.1 in 50 μL of DMEM so that the final concentration of the first dilution of the compound was 10 μM (T = 0). After 10 h, the media were aspirated, and the cells were washed with PBS and lysed with passive lysis 5X buffer (Promega, Madison, WI, USA) for 20 min at room temperature. Relative light units (RLUs) were measured using a luminometer (Promega; GloMax, Madison, WI, USA). Triplicate data were analyzed in GraphPad Prism version 9.4.1 for macOS to generate IC50 values.
# T2 sequence (Q9HAZ1 whole entry): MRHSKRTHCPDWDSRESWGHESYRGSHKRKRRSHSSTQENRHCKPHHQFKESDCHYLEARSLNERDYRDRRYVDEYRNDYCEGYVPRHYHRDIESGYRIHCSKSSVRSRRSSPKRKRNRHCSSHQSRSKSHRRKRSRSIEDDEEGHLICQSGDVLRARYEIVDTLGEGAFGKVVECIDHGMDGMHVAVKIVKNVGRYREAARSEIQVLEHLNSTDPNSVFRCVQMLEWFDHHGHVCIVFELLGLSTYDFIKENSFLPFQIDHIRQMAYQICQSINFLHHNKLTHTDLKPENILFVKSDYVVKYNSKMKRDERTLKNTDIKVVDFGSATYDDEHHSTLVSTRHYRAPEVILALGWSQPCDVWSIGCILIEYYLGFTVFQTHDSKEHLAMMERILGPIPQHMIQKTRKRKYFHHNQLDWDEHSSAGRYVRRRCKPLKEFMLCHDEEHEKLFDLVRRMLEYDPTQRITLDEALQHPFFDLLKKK
# T1 sequence (P19784 whole entry): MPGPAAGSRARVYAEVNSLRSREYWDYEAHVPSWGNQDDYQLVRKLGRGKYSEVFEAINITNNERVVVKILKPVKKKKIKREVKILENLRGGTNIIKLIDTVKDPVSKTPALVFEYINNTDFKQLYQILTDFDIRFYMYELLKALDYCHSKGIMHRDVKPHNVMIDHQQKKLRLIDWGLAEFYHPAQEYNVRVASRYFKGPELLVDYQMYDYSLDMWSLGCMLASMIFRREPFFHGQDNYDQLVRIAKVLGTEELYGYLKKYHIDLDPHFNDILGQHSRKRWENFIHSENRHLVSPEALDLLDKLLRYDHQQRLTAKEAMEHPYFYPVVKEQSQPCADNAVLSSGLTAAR
smiles,measurement,setting,value
"CCC(=O)Nc1cc(Nc2cc(NC3CC3)n3ncc(C#N)c3n2)c(F)cc1N1CCC[C@H](NC)C1 [Compound 2, (S)-N-(5-((3-cyano-7-(cyclopropylamino)pyrazolo[1,5-a]pyrimidin-5-yl)amino)-4-fluoro-2-(3-(methylamino)piperidin-1-yl)phenyl)propionamide]",IC50,[1],12.6 nM
same,IC50,[2],> 30000 nM
same,CLint scaled at 5 μM,[3],48.5 mL/min/kg
same,IC50,[4],158 nM
